Experimental data reported in paper PMC5464773 (eLife, 2017).
Where two headings read alike, the source gives them in different places.

How the values were obtained:
[1] = target: T1, Mcl-1 (Homo sapiens, UniProt Q07820); experiment: Competition fluorescence polarization (anisotropy) with fluoresceinated BIM; type: binding
T1 construct: c-myc
Procedure: C-myc-tagged receptors were used for all Bcl-2 homologs, as previously described ([DeBartolo et al., 2012]; [Dutta et al., 2010]). Plates were mixed at 23°C for 3 hr. Plates were read again at 24 to check equilibration. Experiments were done in at least triplicate. Data were fit, as described for competition fluorescence anisotropy experiments in [Foight et al. (2014]), to a complete competitive binding model (equation 17 in [Roehrl et al. [2004]]) using a Python script.

[2] = tested on: BCR-ABL-expressing B-lineage acute lymphoblastic leukemia cells dependent on Bcl-xL; experiment: iBH3 profiling, cytochrome c release; type: cell-based; conditions: iBH3 fits Bcl-xL, sigmoidal dose-response (variable slope); for LogEC50 (best-fit value): log of EC50, x axis Log [Peptide M]; for Bottom (best-fit value) / Top (best-fit value): fit of 3 replicates
Procedure: (§1) As an additional test for on-pathway activity, we measured cytochrome c release in the same engineered cell lines in response to peptide treatment, using iBH3 profiling ([Ryan et al., 2016]).
(§2) The creation and characterization of the BCR-ABL-expressing B-lineage acute lymphoblastic leukemia suspension cell lines with engineered dependencies on human versions of anti-apoptotic genes is detailed in [Koss et al. (2016)]). Cells were grown in RPMI (Life Technologies, Carlsbad, CA) with 10% fetal bovine serum, 2 mM L-glutamine, 10 mL/L 100x Pen/Strep (Life Technologies # 15140122), 25 mM HEPES and 10 mL/L 100x NEAA (Life Technologies, 11140050). The adherent cell lines PC-3 (RRID: CVCL_0035) and SF295 (RRID: CVCL_1690) are from the NCI60 panel ([Lorenzi et al., 2009]) and were grown in RPMI (Life Technologies) with 10% fetal bovine serum, 2 mM L-glutamine and 10 mL/L 100x Pen/Strep (Life Technologies # 15140122 ). Cell line identities were confirmed by STR profiling. The Lookout Mycoplasma PCR detection kit (Sigma) was used to detect mycoplasma infection.
(§3) Cells were suspended in MEB buffer (150 mM mannitol, 50 mM KCl, 10 mM HEPES, 5 mM succinic acid, 20 μM EGTA, 20 μM EDTA, 0.1% BSA, final pH 7.4) at 0.5*10^6 cells/mL (adherent lines) or 2 *10^6 cells/mL (suspension lines). Cell suspension was added to a 384 non-binding well plate (10 μL/well) containing peptides at 2X final concentration in MEB with 20 μg/mL digitonin. Plates were incubated at 25°C for 1 hr. To terminate exposure, 10 μL of 4% formaldehyde in PBS was added to each well, plates were incubated for 10 min before addition of 10 μL N2 buffer (1.7M Tris, 1.25M glycine, pH 9.1) for 5 min. 10 μL of staining buffer (2% Tween20, 10% BSA, PBS) containing 10 μg/mL Hoechst 33342 and 1.25 μg/mL anti-cytochrome c Alexa647 conjugate (BioLegend clone 6H2.B4) was added to each well before sealing the plate and shaking overnight. The median fluorescence of the cytochrome c channel of Hoechst positive singlets was recorded by an IntelliCyt iQue Screener Plus. Cytochrome c release was determined by normalizing the median fluorescence intensity (MFI) data to positive control wells (Alamethicin) and negative control wells (DMSO) as follows: Cytochromecrelease=1−(MFIsample−MFIAlamethicin)/(MFIDMSO−MFIAlamethicin)

[3] = tested on: BCR-ABL-expressing B-lineage acute lymphoblastic leukemia cells dependent on Bcl-2; experiment: iBH3 profiling, cytochrome c release; type: cell-based; conditions: iBH3 fits Bcl-2, sigmoidal dose-response (variable slope); for LogEC50 (best-fit value): log of EC50, x axis Log [Peptide M]; for Bottom (best-fit value) / Top (best-fit value): fit of 3 replicates
Procedure: as §1, §2, §3

[4] = tested on: BCR-ABL-expressing B-lineage acute lymphoblastic leukemia cells dependent on Mcl-1; experiment: BH3 profiling, mitochondrial depolarization (JC-1) in permeabilized cells; type: cell-based; conditions: BH3 profiling fits Mcl-1, sigmoidal dose-response (variable slope); for Top (best-fit value): constrained (Top < 100 or Top > 78); for LogEC50 (best-fit value): x = Log [Peptide] M, fits hit constraint or ambiguous
Procedure: Cell line identities were confirmed by STR profiling.
Peptides were titrated by serial dilution in MEB buffer (150 mM Mannitol, 10 mM HEPES-KOH pH 7.5, 50 mM KCl, 0.02 mM EGTA, 0.02 mM EDTA, 0.1% BSA and 5 mM Succinate) containing 20 μg/mL oligomycin, 50 μg/mL digitonin, 2 μM JC-1 and 10 mM 2-mercaptoethanol in 384-well plates. Controls for no depolarization (1% DMSO) and complete depolarization with the mitochondrial oxidative phosphorylation uncoupler FCCP (20 μM) were included for data normalization. […] 15 μL of cell suspension was added to each well containing 15 μL of treatment solution. […] To produce percent depolarization, the area under the resultant curve was calculated and normalized to the assay controls. Peptide titration curves were fit to sigmoidal dose-response curves using Graphpad PRISM seven to obtain EC50 values.

[5] = competition FP source data, mean of three replicates, values above 5 μM are reported as > 5 μM in the figures, read-out: mean Ki (M) Mcl-1
[6] = competition FP source data, replicate 1
[7] = competition FP source data, replicate 2
[8] = competition FP source data, replicate 3

T1 sequence (Q07820 whole entry): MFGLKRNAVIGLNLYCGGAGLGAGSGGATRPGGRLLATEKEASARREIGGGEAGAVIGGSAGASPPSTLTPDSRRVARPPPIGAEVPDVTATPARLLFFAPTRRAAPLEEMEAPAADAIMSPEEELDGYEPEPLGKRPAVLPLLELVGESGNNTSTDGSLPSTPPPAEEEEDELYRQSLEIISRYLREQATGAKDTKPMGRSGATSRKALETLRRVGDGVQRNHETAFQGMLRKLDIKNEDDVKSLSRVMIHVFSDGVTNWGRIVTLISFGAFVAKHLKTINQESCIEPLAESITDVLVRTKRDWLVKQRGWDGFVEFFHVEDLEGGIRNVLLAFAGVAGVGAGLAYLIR

Ki [1, 5] [M] | Ki (M) Mcl-1 [1, 6] [M] | Ki (M) Mcl-1 [1, 7] [M] | Ki (M) Mcl-1 [1, 8] [M] | Ki ([1]; competition FP, 50 nM c-myc-tagged receptor + 25 nM fluoresceinated BIM, Tris pH 7.8, 23°C, 3 hr, mean ± SD of three replicates, read-out: Ki (nM) Mcl-1) [M] | Substance | LogEC50 (best-fit value) [2] | HillSlope (best-fit value) [2] | Bottom (best-fit value) [2] | Top (best-fit value) [2] | LogEC50 (best-fit value) [3] | HillSlope (best-fit value) [3] | Bottom (best-fit value) [3] | Top (best-fit value) [3] | HillSlope (best-fit value) [4] | Bottom (best-fit value) ([4]; constrained (0 < Bottom < 5 or Bottom < 5)) | Top (best-fit value) [4] | LogEC50 (best-fit value) [4] | fold weaker binding to Mcl-1 than to Bfl-1 ([1]; ratio of Ki values from competition FP) [fold]
5.52e-07 | 6.51e-07 | 6.19e-07 | 3.85e-07 | – | Ac-QWIREIAAGLRRFADILNAQVER-NH2 [FS3] | -5.617 | 1.589 | 0.1375 | 0.9805 | -5.822 | 2.312 | 0.1754 | 0.986 | 0.8379 | 4.876 | ~ 100 | -5.183 | –
7.64e-06 | 2.37e-06 | 8.12e-06 | 1.24e-05 | > 5e-06 | Ac-QWVREIAAGLRLAADNVNAQLER-NH2 [FS1] | ~ -4.446 | ~ 9.069 | 0.1572 | 0.461 | -3.946 | 0.814 | 0.1541 | 1.46 | 0.346 | – | 99.39 | -4.985 | –

Substance | Ki [1, 5] [M] | Ki (M) Mcl-1 [1, 6] [M] | Ki (M) Mcl-1 [1, 7] [M] | Ki (M) Mcl-1 [1, 8] [M] | Ki ([1]; competition FP, 50 nM c-myc-tagged receptor + 25 nM fluoresceinated BIM, Tris pH 7.8, 23°C, 3 hr, mean ± SD of three replicates, read-out: Ki (nM) Mcl-1) [M] | LogEC50 (best-fit value) [2] | HillSlope (best-fit value) [2] | Bottom (best-fit value) [2] | Top (best-fit value) [2] | LogEC50 (best-fit value) [3] | HillSlope (best-fit value) [3] | Bottom (best-fit value) [3] | Top (best-fit value) [3] | HillSlope (best-fit value) [4] | Bottom (best-fit value) ([4]; constrained (0 < Bottom < 5 or Bottom < 5)) | Top (best-fit value) [4] | LogEC50 (best-fit value) [4] | fold weaker binding to Mcl-1 than to Bfl-1 ([1]; ratio of Ki values from competition FP) [fold]
Ac-QWVREIAAGLRRAADDVNAQVER-NH2 [FS2] | – | 2.88e-06 | 3.39e-06 | 3.32e-06 | – | ~ -3.991 | ~ 14.29 | 0.1223 | ~ 0.6231 | -4.564 | 1.006 | 0.134 | 1.087 | 0.4032 | – | ~ 100 | -4.604 | > 100
